Assay type in all cases: functional, cell membranes, Membrane vesicle
What all share (parameters): scale not given: the % may be the effect or the level left

Series [1] has as its target T1, MRP5 (ABCC5) (Homo sapiens, UniProt O15440). The series is described as follows: TP_TRANSPORTER: inhibition of cGMP uptake (cGMP: 5 uM, Sildenafil: 1 uM) in membrane vesicles from MRP5-expressing V79 cells. As to conditions: hamster, probe cGMP (5 uM), read-out: Activity.
The target in series [2] is T1, MRP5 (ABCC5). The series is described as follows: TP_TRANSPORTER: inhibition of cGMP uptake (cGMP: 5 uM, Fluorescein diacetate: 50 uM) in membrane vesicles from MRP5-expressing V79 cells. Particulars: hamster, probe cGMP (5 uM), read-out: Activity.
Series [3] concerns the target T1, MRP5 (ABCC5). Put plainly: TP_TRANSPORTER: inhibition of cGMP uptake (cGMP: 5 uM, Zaprinast: 10 uM) in membrane vesicles from MRP5-expressing V79 cells. Particulars: hamster, probe cGMP (5 uM), read-out: Activity.
Series [4] deals with T1, MRP5 (ABCC5). Put plainly: TP_TRANSPORTER: inhibition of cGMP uptake (cGMP: 5 uM, Trequinsin: 1 uM) in membrane vesicles from MRP5-expressing V79 cells. As to conditions: hamster, probe cGMP (5 uM), read-out: Activity.
Series [5] deals with ATP-binding cassette sub-family C member 5 (Homo sapiens, UniProt O15440). The series is described as follows: TP_TRANSPORTER: inhibition of cGMP uptake (cGMP: 5 uM, Probenecid: 50 uM) in membrane vesicles from MRP5-expressing V79 cells. As to conditions: hamster, v79, 50 µM.
Sequence of ATP-binding cassette sub-family C member 5 (O15440 whole entry): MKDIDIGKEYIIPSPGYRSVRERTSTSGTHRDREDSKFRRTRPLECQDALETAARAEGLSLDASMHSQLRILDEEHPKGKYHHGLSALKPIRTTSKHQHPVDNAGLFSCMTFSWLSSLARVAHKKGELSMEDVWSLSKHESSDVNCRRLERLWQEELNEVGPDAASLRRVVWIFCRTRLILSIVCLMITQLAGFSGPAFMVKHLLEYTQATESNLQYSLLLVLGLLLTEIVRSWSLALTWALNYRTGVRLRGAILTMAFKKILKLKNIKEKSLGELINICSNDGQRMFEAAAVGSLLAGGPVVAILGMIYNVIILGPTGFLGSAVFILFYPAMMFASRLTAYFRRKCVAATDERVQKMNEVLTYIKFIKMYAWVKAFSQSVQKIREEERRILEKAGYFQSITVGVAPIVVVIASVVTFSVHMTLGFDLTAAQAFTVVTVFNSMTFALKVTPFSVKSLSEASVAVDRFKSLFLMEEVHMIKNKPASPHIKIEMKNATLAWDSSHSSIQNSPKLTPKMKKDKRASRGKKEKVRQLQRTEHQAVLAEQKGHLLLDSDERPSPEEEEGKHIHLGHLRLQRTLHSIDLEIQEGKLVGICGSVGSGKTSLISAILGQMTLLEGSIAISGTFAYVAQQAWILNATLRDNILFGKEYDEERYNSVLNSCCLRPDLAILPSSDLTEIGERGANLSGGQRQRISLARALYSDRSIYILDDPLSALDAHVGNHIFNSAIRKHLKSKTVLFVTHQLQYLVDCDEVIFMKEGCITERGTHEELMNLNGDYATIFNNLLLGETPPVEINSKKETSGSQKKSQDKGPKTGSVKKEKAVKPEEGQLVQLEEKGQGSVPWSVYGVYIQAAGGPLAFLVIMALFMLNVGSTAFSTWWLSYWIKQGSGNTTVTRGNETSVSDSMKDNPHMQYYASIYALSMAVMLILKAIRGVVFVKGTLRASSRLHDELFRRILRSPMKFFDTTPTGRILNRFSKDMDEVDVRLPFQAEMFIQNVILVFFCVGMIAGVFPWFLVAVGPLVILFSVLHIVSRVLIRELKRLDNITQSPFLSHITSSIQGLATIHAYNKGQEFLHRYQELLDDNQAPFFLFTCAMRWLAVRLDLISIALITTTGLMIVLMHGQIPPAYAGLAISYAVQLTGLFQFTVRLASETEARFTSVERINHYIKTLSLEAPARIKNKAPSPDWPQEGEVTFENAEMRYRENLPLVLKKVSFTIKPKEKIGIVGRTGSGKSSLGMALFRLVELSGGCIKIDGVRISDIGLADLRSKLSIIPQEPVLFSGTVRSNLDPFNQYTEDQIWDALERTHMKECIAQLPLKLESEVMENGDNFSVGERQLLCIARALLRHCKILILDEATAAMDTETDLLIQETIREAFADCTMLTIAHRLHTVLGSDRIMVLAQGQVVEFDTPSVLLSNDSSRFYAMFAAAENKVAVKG

Data on five molecules can be found in ChEMBL document CHEMBL2074325, “The multidrug resistance protein 5 functions as an ATP-dependent export pump for cyclic nucleotides” (J Biol Chem, 2000).

T1 sequence (O15440 whole entry): as above

With `CCCc1nn(C)c2c(=O)[nH]c(-c3cc(S(=O)(=O)N4CCN(C)CC4)ccc3OCC)nc12`, the activity at 1 µM on MRP5 (ABCC5) [1] came out at 22%.

Turning to `CC(=O)Oc1ccc2c(c1)Oc1cc(OC(C)=O)ccc1C21OC(=O)c2ccccc21` [FLUORESCEIN DIACETATE], the activity at 50 µM on MRP5 (ABCC5) [2] is 49.2%.

Regarding `CCCOc1ccccc1-c1nc2nn[nH]c2c(=O)[nH]1` [ZAPRINAST], the activity at 10 µM on MRP5 (ABCC5) [3] was found to be 41%.

`COc1cc2c(cc1OC)-c1c/c(=N\c3c(C)cc(C)cc3C)n(C)c(=O)n1CC2` [TREQUINSIN]: the activity at 1 µM on MRP5 (ABCC5) [4] is 26.2%.

In series [5], `CCCN(CCC)S(=O)(=O)c1ccc(C(=O)O)cc1` [PROBENECID] showed an Activity of 31.7%.
